Source: patent US10961200B2, “Small molecule inhibitors of lactate dehydrogenase and methods of use thereof” (THE UNITED STATES OF AMERICA, AS REPRESENTED BY THE …, priority 2014, dated 2021)
Counter-ions that a name gives are not always drawn. Like-named read-outs stand apart in the source and are kept apart here.

Legend:
[1] = molecular target: Human LDHA (Homo sapiens (Human), UniProt P00338); assay: human LDHA primary biochemical assay (resazurin/diaphorase coupled, fluorescence)
Source text: Test compounds were placed in a Greiner Bio-One (Monroe, N.C.) 1536-well black solid bottom assay plate. 200 millimolar (mM) Tris HCl, pH 7.4, 100 micromolar […] EDTA and 0.01% TWEEN-20™, final concentration, was used as the assay buffer. The LDHA reagent was 2 nanomolar (nM) Human LDHA (Meridian Life Science, Inc., Memphis, Tenn.), final concentration, in assay buffer.

[2] = tested on: MiaPaCa2 cells; assay: cell-based HT lactate assay, colorimetric/fluorometric detection (inhibition of lactate production); details: class symbols, 0 to 3 pluses
Procedure: Cell-based HT Lactate assay is a miniaturized Biovision Lactate Colorimetric/Fluorometric Assay Kit (Cat #K607-100). The assay is roughly a 3.5 hour assay run in a 1536 plate format. Cell number optimization should be run for each cell line to achieve an optimal number in which lactate production equals roughly 90% of the standard curve range. Cell number per well optimization has been performed with the following cell lines: MiaPaCa2—500 cells/well, SNU398—500 cells/well, and P493—500 cells/well.
The lactate activity in Table 8 is represented by 0 to 3 pluses as follows: +++<1 μM; ++1-10 μM; +10-57 μM; and −>57 μM.

[3] = LDHA inhibitory activity, assay of Example 1, activity level classes
[4] = LDHA inhibitory activity, activity level based on IC50 (Table 7)
[5] = read-out: Inhibitory activity IC50

Compound	IC50 [1, 3]	IC50 ([2]; Homo sapiens, MIA PaCa-2)	IC50 [1, 4]	IC50 [2]	IC50 [1, 5]
NS(=O)(=O)c1ccc(Cc2c(-c3cccc(-c4ccccc4)c3)nn(-c3nc(C(=O)O)cs3)c2C2CC2)c(F)c1 [Compound 183, 2-(3-([1,1′-biphenyl]-3-yl)-5-cyclopropyl-4-(2-fluoro-4-sulfamoylbenzyl)-1H-pyrazol-1-yl)thiazole-4-carboxylic acid]	< 100 nM	< 1000 nM	–	–	–
Cc1ccc(-c2cc(-c3nn(-c4nc(C(=O)O)cs4)c(CC4CC4)c3Cc3ccc(S(N)(=O)=O)c(Cl)c3)ccc2F)s1 [Compound 407]	–	–	< 100 nM	< 1000 nM	–
NS(=O)(=O)c1ccc(Cc2c(-c3cccc(N4CCCC(F)(F)C4)c3)nn(-c3nc(C(=O)O)cs3)c2CC2CC2)cc1F [Compound 397]	–	–	< 100 nM	1000 to 10000 nM	–
NS(=O)(=O)c1ccc(Cc2c(-c3ccc(F)c(C#CC4(O)CCOC4)c3)nn(-c3nc(C(=O)O)cs3)c2CC2CC2)cc1F (stereo not shown) [Compound 418]	–	–	< 100 nM	1000 to 10000 nM	–
N[S+](=O)([O-])c1ccc(Cc2c(-c3cccc(S(F)(F)(F)(F)F)c3)nn(-c3nc(C(=O)O)cs3)c2CC2CC2)cc1F [Compound 376]	–	–	< 100 nM	< 1000 nM	–
CC(F)C#Cc1cc(-c2nn(-c3nc(C(=O)O)cs3)c(CC3CC3)c2Cc2ccc([S+](N)(=O)[O-])c(F)c2)ccc1F (stereo not shown) [Compound 443]	–	< 1000 nM	< 100 nM	–	–
Cn1cc(-c2cc(-c3nn(-c4nc(C(=O)O)cs4)c(CC4CC4)c3Cc3ccc(S(N)(=O)=O)cc3F)ccc2F)cn1 [Compound 214, 2-(5-(cyclopropylmethyl)-3-(4-fluoro-3-(1-methyl-1H-pyrazol-4-yl)phenyl)-4-(2-fluoro-4-sulfamoylbenzyl)-1H-pyrazol-1-yl)thiazole-4-carboxylic acid]	–	1000 to 10000 nM	–	–	< 100 nM
NS(=O)(=O)c1ccc(Cc2c(-c3ccc(F)c(Oc4ccc(F)cc4)c3)nn(-c3nc(C(=O)O)cs3)c2CC2CC2)cc1F [Compound 511, 2-(5-(cyclopropylmethyl)-3-(4-fluoro-3-(4-fluorophenoxy)phenyl)-4-(3-fluoro-4-sulfamoylbenzyl)-1H-pyrazol-1-yl)thiazole-4-carboxylic Acid]	–	1000 to 10000 nM	< 100 nM	–	–
CC(C)(C)C#Cc1cc(-c2nn(-c3nc(C(=O)O)cs3)c(CC3CC3)c2Cc2ccc(S(N)(=O)=O)c(F)c2)ccc1F [Compound 402]	–	–	< 100 nM	< 1000 nM	–
CC(C)C#Cc1cc(-c2nn(-c3nc(C(=O)O)cs3)c(CC3CC3)c2Cc2ccc([S+](N)(=O)[O-])c(F)c2)ccc1F [Compound 445]	–	–	< 100 nM	< 1000 nM	–
NS(=O)(=O)c1ccc(Cc2c(-c3ccc(F)c(OCc4ccccc4)c3)nn(-c3nc(C(=O)O)cs3)c2CC2CC2)cc1 [Compound 480, 2-(3-(3-(benzyloxy)-4-fluorophenyl)-5-(cyclopropylmethyl)-4-(4-sulfamoylbenzyl)-1H-pyrazol-1-yl)thiazole-4-carboxylic Acid]	–	< 1000 nM	< 100 nM	–	–
NS(=O)(=O)c1ccc(Cc2c(-c3ccc(F)c(-c4cccc(F)c4)c3)nn(-c3nc(C(=O)O)cs3)c2C2CC2)cc1F [Compound 251]	< 100 nM	–	–	1000 to 10000 nM	–
CC(C)(C)Cc1cc(-c2nn(-c3nc(C(=O)O)cs3)c(CC3CC3)c2Cc2ccc(S(N)(=O)=O)c(F)c2)ccc1F [Compound 386]	–	–	< 100 nM	< 1000 nM	–
COCC#Cc1cc(-c2nn(-c3nc(C(=O)O)cs3)c(CC3CC3)c2Cc2ccc([S+](N)(=O)[O-])c(F)c2)ccc1F [Compound 404]	–	< 1000 nM	< 100 nM	–	–
CCOC(=O)c1csc(-n2nc(-c3ccc(F)c(C#CC4CCCC4)c3)c(Cc3ccc(S(N)(=O)=O)c(F)c3)c2CC2CC2)n1 [Compound 268]	> 57000 nM	–	–	> 57000 nM	–
NS(=O)(=O)c1ccc(Cc2c(-c3ccc(F)c(C#CCC4CC4)c3)nn(-c3nc(C(=O)O)cs3)c2CC2CC2)cc1F [Compound 437]	–	–	< 100 nM	< 1000 nM	–
Cc1ccc(-c2cccc(-c3nn(-c4nc(C(=O)O)cs4)c(CC4CC4)c3Cc3ccc(S(N)(=O)=O)c(F)c3)c2)cc1 [Compound 332]	< 100 nM	–	–	< 1000 nM	–
NS(=O)(=O)c1ccc(Cc2c(-c3ccc(F)c(C#CC4CCC4)c3)nn(-c3nc(C(=O)O)cs3)c2CC2CC2)cc1F [Compound 446]	–	–	< 100 nM	< 1000 nM	–
Cc1ccc(-c2nn(-c3nc(C(=O)O)cs3)c(CC3CC3)c2Cc2ccc(S(N)(=O)=O)cc2)cc1OC1CCCC1 [Compound 467, 2-(3-(3-(cyclopentyloxy)-4-methylphenyl)-5-(cyclopropylmethyl)-4-(4-sulfamoylbenzyl)-1H-pyrazol-1-yl)thiazole-4-carboxylic acid]	–	< 1000 nM	< 100 nM	–	–

Compound	IC50 [1, 3]	IC50 ([2]; Homo sapiens, MIA PaCa-2)	IC50 [1, 4]	IC50 [2]	IC50 [1, 5]
NS(=O)(=O)c1ccc(Cc2c(-c3ccc(F)c(C#CC4CCCC4)c3)nn(-c3nc(C(=O)O)cs3)c2CC2CC2)cc1F [Compound 258]	< 100 nM	–	–	< 1000 nM	–
NS(=O)(=O)c1ccc(Cc2c(-c3ccc(F)c(OCc4cccc(F)c4)c3)nn(-c3nc(C(=O)O)cs3)c2CC2CC2)cc1F [Compound 528, 2-(5-(cyclopropylmethyl)-3-(4-fluoro-3-((3-fluorobenzyl)oxy)phenyl)-4-(3-fluoro-4-sulfamoylbenzyl)-1H-pyrazol-1-yl)thiazole-4-carboxylic Acid]	–	< 1000 nM	< 100 nM	–	–
Cc1cnc(-c2cc(-c3nn(-c4nc(C(=O)O)cs4)c(CC4CC4)c3Cc3ccc(S(N)(=O)=O)c(F)c3)ccc2F)s1 [Compound 231, 2-(5-(cyclopropylmethyl)-3-(4-fluoro-3-(5-methylthiazol-2-yl)phenyl)-4-(3-fluoro-4-sulfamoylbenzyl)-1H-pyrazol-1-yl)thiazole-4-carboxylic acid, TFA]	–	< 1000 nM	–	–	< 100 nM
NS(=O)(=O)c1ccc(Cc2c(-c3ccc(F)c(C4CCCC4)c3)nn(-c3nc(C(=O)O)cs3)c2CC2CC2)cc1F [Compound 373]	–	–	< 100 nM	< 1000 nM	–
CNS(=N)(=O)c1ccc(Cc2c(-c3ccc(F)c(-c4cccc(F)c4)c3)nn(-c3nc(C(=O)O)cs3)c2CC2CC2)cc1F (stereo not shown) [Compound 389]	–	–	100 to 1000 nM	1000 to 10000 nM	–
NS(=O)(=O)c1cccc(Cc2c(-c3ccc(F)c(-c4cccc(F)c4)c3)nn(-c3nc(C(=O)O)cs3)c2CC2CC2)c1 [Compound 368]	–	–	1000 to 57000 nM	10000 to 57000 nM	–
NS(=O)(=O)c1ccc(Cc2c(-c3cccc(-c4cccc(F)c4)c3)nn(-c3nc(C(=O)O)cs3)c2CC2CC2)cc1F [Compound 365]	–	–	< 100 nM	< 1000 nM	–
NS(=O)(=O)c1ccc(Cc2c(-c3ccc(F)c(C#CC4(F)COC4)c3)nn(-c3nc(C(=O)O)cs3)c2CC2CC2)cc1F [Compound 414]	–	–	< 100 nM	1000 to 10000 nM	–
NS(=O)(=O)c1ccc(Cc2c(-c3ccc(F)c(C4=CCCC4)c3)nn(-c3nc(C(=O)O)cs3)c2CC2CC2)cc1F [Compound 444]	–	–	< 100 nM	< 1000 nM	–
NS(=O)(=O)c1ccc(Cc2c(-c3ccc(F)c(Oc4ccccc4)c3)nn(-c3nc(C(=O)O)cs3)c2CC2CC2)cc1 [Compound 508, 2-(5-(cyclopropylmethyl)-3-(4-fluoro-3-phenoxyphenyl)-4-(4-sulfamoylbenzyl)-1H-pyrazol-1-yl)thiazole-4-carboxylic Acid]	–	1000 to 10000 nM	< 100 nM	–	–
NS(=O)(=O)c1ccc(Cc2c(-c3ccc(F)c(C(=O)NCc4ccccc4)c3)nn(-c3nc(C(=O)O)cs3)c2CC2CC2)cc1F [Compound 544, 2-(3-(3-(benzylcarbamoyl)-4-fluorophenyl)-5-(cyclopropylmethyl)-4-(3-fluoro-4-sulfamoylbenzyl)-1H-pyrazol-1-yl)thiazole-4-carboxylic acid]	–	1000 to 10000 nM	< 100 nM	–	–
Cc1ccc(Oc2cc(-c3nn(-c4nc(C(=O)O)cs4)c(CC4CC4)c3Cc3ccc(S(N)(=O)=O)c(F)c3)ccc2F)cc1 [Compound 510, 2-(5-(cyclopropylmethyl)-3-(4-fluoro-3-(p-tolyloxy)phenyl)-4-(3-fluoro-4-sulfamoylbenzyl)-1H-pyrazol-1-yl)thiazole-4-carboxylic Acid]	–	< 1000 nM	< 100 nM	–	–
N[S+](=O)([O-])c1ccc(Cc2c(-c3ccc(F)c(C#CC4CC4)c3)nn(-c3nc(C(=O)O)cs3)c2CC2CC2)cc1 [Compound 433]	–	–	< 100 nM	< 1000 nM	–
CCOC(=O)c1csc(-n2nc(-c3cccc(C#CC4CCCC4)c3)c(Cc3ccc(S(N)(=O)=O)c(F)c3)c2CC2CC2)n1 [Compound 428]	–	–	> 57000 nM	> 57000 nM	–
N#CC#Cc1cc(-c2nn(-c3nc(C(=O)O)cs3)c(CC3CC3)c2Cc2ccc(S(N)(=O)=O)c(F)c2)ccc1F [Compound 442]	–	–	< 100 nM	1000 to 10000 nM	–
N[S+](=O)([O-])c1ccc(Cc2c(-c3cccc(OC4CCCC4)c3)nn(-c3nc(C(=O)O)cs3)c2CC2CC2)c(F)c1 [Compound 338]	–	< 1000 nM	< 100 nM	–	–
COc1cccc(-c2cc(-c3c(Cc4ccc(S(N)(=O)=O)cc4F)c(CC4CC4)nn3-c3nc(C(=O)O)cs3)ccc2F)c1 [Compound 327]	1000 to 57000 nM	–	–	10000 to 57000 nM	–
N[S+](=O)([O-])c1ccc(Cc2c(-c3ccc(F)c(C#CCN4CCCC4)c3)nn(-c3nc(C(=O)O)cs3)c2CC2CC2)cc1F [Compound 417]	–	–	< 100 nM	1000 to 10000 nM	–
NS(=O)(=O)c1ccc(Cc2c(-c3ccc(F)c(C#CC4CCNCC4)c3)nn(-c3nc(C(=O)O)cs3)c2CC2CC2)cc1F [Compound 261]	< 100 nM	–	–	1000 to 10000 nM	–
